Source: patent US20040142887A1, “Antigen-polymer compositions” (priority 2002, published 2004)
Values after ≈ are worked out from the molar mass of the structure shown.

Key:
[1] = not given; remark: listed apart in the source

Structure (SMILES): CC[C@H](C)[C@H](NC(=O)CNC(=O)[C@@H](NC(=O)[C@H](Cc1ccccc1)NC(=O)[C@H](CCCCN)NC(=O)[C@H](CO)NC(=O)[C@H](CC(N)=O)NC(=O)[C@H](C)NC(=O)[C@H](CCCCN)NC(=O)[C@@H](NC(=O)[C@H](Cc1ccc(O)cc1)NC(=O)[C@H](CCC(N)=O)NC(=O)[C@@H](N)CS)[C@@H](C)CC)[C@@H](C)CC)C(=O)N[C@H](C(=O)N[C@@H](CCC(=O)O)C(=O)N[C@@H](CC(C)C)C(=O)N[C@@H](CC(=O)O)C(=O)N[C@@H](CC(=O)O)C(=O)N1CCC[C@H]1C(=O)N[C@@H](CCCNC(=N)N)C(=O)N[C@@H](Cc1ccccc1)C(=O)N[C@@H](CCC(N)=O)C(=O)N[C@@H](CC(=O)O)C(=O)N[C@@H](CO)C(=O)N[C@@H](CO)C(=O)N[C@@H](CO)C(=O)N[C@@H](CO)C(=O)N[C@@H](CCCCN)C(=O)N[C@@H](C)C(=O)N1CCC[C@H]1C(=O)N1CCC[C@H]1C(=O)N1CCC[C@H]1C(=O)N[C@@H](CO)C(=O)N[C@@H](CC(C)C)C(=O)N1CCC[C@H]1C(=O)N[C@@H](CO)C(=O)N1CCC[C@H]1C(=O)N[C@@H](CO)C(=O)N[C@@H](CCCNC(=N)N)C(=O)N[C@@H](CC(C)C)C(=O)N1CCC[C@H]1C(=O)NCC(=O)N1CCC[C@H]1C(=O)N[C@@H](CO)C(=O)N[C@@H](CC(=O)O)C(=O)N[C@H](C(=O)N1CCC[C@H]1C(=O)N[C@H](C(=O)N[C@@H](CC(C)C)C(=O)N1CCC[C@H]1C(=O)N[C@@H](CCC(N)=O)C(=O)O)[C@@H](C)CC)[C@@H](C)O)[C@@H](C)O [CTP37-TT2]
- solubility: ~70 mg/mL (≈ 12.8 mM)
- stability to hydrolysis in solution ([1]; pH 1): stable to hydrolysis except when the pH was very low (1-2)
- peptide remaining soluble at acidic pH ([1]; pH 1.4): all peptides remained soluble
